This is an account of results in US20260193311A1, “METHODS AND COMPOSITIONS FOR STIMULATION OF CHIMERIC ANTIGEN RECEPTOR T CELLS WITH HAPTEN LABELLED CELLS” (Seattle Children's Hospital (dba Seattle Children's …, priority 2018, published 2026).

For assay [1], the system named is CD19+ Raji cells. Kind of assay: flow cytometry for presence of FL on hapten-labeled cells. The assay is classed as cell-based. The procedure: Hapten-labeled cells were prepared by either attaching the hapten, fluorescein (FL), to the cells via an integrated phospholipid or via an antibody. CD19+ Raji cells (lymphoma cell line) were incubated either overnight with 5 μM FL-DHPE (FIG. 3B), or for 20 min with an antiCD19 antibody labeled with fluorescein isothiocyanate (FITC). The cells were washed, stained, and analyzed by flow cytometry for the presence of FL. […] The levels of FL were higher for cells treated with FL-DHPE compared to cells treated with the antiCD19 antibody (FIG. 4A). This was consistent with different tethering techniques providing different levels of hapten on the surface of a cell.

Assay [2] relates to CD19+K562 cells (hapten-labeled). As to the kind of experiment: cytokine release assay of antiFL CAR T cells against hapten-labelled cells. The assay is classed as cell-based. As to conditions: target cells prepared with 5 μM FL-DHPE. The method, then:
Hapten-labeled cells were prepared. CD19^+K562 cells were incubated either overnight with 5 μM FL-DHPE or for 20 min with an CD19 antibody labeled with FITC. The hapten-labeled cells were incubated with either one of two antiFL CAR T cells (FITC-E2 scFv, or 4M5.3 scFv). […] Hudecek M, et al., (2013) Clin Cancer Res. 19:3153-64, which is incorporated by reference in its entirety.
The levels of cytokines released by the antiFL CAR T cells were determined. […] The levels of released IFN-7, and TNF-α were lower for hapten-labeled cells contacted with the antiFL(4M5.3) CART cell. Also, there was a trend for hapten-labeled cells prepared with FL-DHPE inducing higher levels of cytokine release compared to hapten-labeled cells prepared with an CD19 antibody labeled with FITC.

As for `CCCCCCCCCCCCCCCC(=O)OCC(COP(=O)(O)OCCNC(=S)Nc1ccc2c(c1)C(=O)OC21c2ccc(O)cc2Oc2cc(O)ccc21)OC(=O)CCCCCCCCCCCCCCC` (stereo not drawn) [FL-DHPE, N-(Fluorescein-5-Thiocarbamoyl)-1,2-Dihexadecanoyl-sn-Glycero-3-Phosphoethanolamine], in assay [1] (5 μM FL-DHPE overnight), the “presence of FL, shift compared to untreated control cells” value was “positive shift”. Also, in assay [1] (5 μM FL-DHPE overnight vs antibody 20 min), the “levels of FL compared to cells treated with the antiCD19 antibody” value was “higher”. In assay [2], the “cytokine release compared to hapten-labeled cells prepared with CD19 antibody labeled with FITC (trend)” value is recorded as “higher levels”.
